Assay results taken from ChEMBL document CHEMBL1268834, “Expansion of SAR studies on triaryl bis sulfone cannabinoid CB2 receptor ligands” (Bioorg Med Chem Lett, 2010).

Legend:
[1] = Selectivity ratio of Ki for recombinant cannabinoid CB1 receptor to Ki for recombinant cannabinoid CB2 receptor
[2] = molecular target: Cannabinoid receptor 2 (Homo sapiens, UniProt P34972); experiment: Inhibition of beta-arrestin binding to recombinant cannabinoid CB2 receptor
[3] = AUC in rat at 10 mg/kg; format: ADME, organism-based; parameters: dose 10 mg/kg; conditions: plasma

Chain of Cannabinoid receptor 2 (P34972 whole entry): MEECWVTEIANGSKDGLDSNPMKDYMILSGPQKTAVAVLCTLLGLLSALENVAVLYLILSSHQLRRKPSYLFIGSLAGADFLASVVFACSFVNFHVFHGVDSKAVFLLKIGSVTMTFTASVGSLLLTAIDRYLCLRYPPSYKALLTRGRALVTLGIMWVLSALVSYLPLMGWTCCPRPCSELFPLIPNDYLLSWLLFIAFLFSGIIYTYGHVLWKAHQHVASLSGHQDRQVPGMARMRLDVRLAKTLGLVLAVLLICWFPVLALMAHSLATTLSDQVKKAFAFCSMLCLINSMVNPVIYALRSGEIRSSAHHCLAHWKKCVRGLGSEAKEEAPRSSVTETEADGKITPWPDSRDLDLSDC

Compound	Ratio Ki [1]	Ki [2] [nM]	AUC [3] [µM·h]
CN(C)c1ncccc1S(=O)(=O)n1c(S(=O)(=O)N2CCC(CNS(=O)(=O)C(F)(F)F)CC2)cc2ccccc21	126	23	–
O=S(=O)(c1cc2ccccc2n1S(=O)(=O)c1cccnc1)N1CCC(CNS(=O)(=O)C(F)(F)F)CC1	139	41	–
CCCC1(CNS(=O)(=O)C(F)(F)F)CCN(S(=O)(=O)c2cc3ccccc3n2S(=O)(=O)c2ccccn2)CC1	26400	1.6	17.6
O=S(=O)(c1cc2ccccc2n1S(=O)(=O)c1ccccc1F)N1CCC2(CC1)CN(S(=O)(=O)C(F)(F)F)C2	12	8430	–
O=S(=O)(c1cc2ccccc2n1S(=O)(=O)c1ccccn1)N1CCC2(CC1)C[C@@H]2NS(=O)(=O)C(F)(F)F	3500	0.4	4.56
O=S(=O)(c1cc2ccccc2n1S(=O)(=O)c1ccccc1F)N1CCC2(CC1)C[C@@H]2NS(=O)(=O)C(F)(F)F	413	–	–
O=S(=O)(c1cc2ccccc2n1S(=O)(=O)c1ccccc1F)N1CCCC(CCNS(=O)(=O)C(F)(F)F)C1 (configuration not stated)	3	258	–
O=S(=O)(c1cc2ccccc2n1S(=O)(=O)c1ccccc1F)N1CCC2(CC(NS(=O)(=O)C(F)(F)F)C2)C1 (configuration not stated)	117	452	–
O=S(=O)(c1cc2ccccc2n1S(=O)(=O)c1ccccc1F)N1CC(CCNS(=O)(=O)C(F)(F)F)C1	11	249	–
C[C@@H](NS(=O)(=O)C(F)(F)F)c1ccc(S(=O)(=O)n2cccc2S(=O)(=O)c2ccccc2F)cc1	962	8.4	–
O=S(=O)(c1cc2ccccc2n1S(=O)(=O)c1ccccc1F)N1C[C@@H]2[C@@H](CNS(=O)(=O)C(F)(F)F)[C@@H]2C1	279	9	–
C[C@@H]1CN(S(=O)(=O)c2cc3ccccc3n2S(=O)(=O)c2ccccc2F)CC[C@H]1CNS(=O)(=O)C(F)(F)F	2260	0.5	–
C[C@H]1C[C@H](CNS(=O)(=O)C(F)(F)F)CCN1S(=O)(=O)c1cc2ccccc2n1S(=O)(=O)c1ccccc1F	334	16	–
CC1(CNS(=O)(=O)C(F)(F)F)CCN(S(=O)(=O)c2cc3ccccc3n2S(=O)(=O)c2ccccc2F)CC1	6720	0.35	–
O=S(=O)(c1cc2ccccc2n1S(=O)(=O)c1ccccn1)N1CCC(CNS(=O)(=O)C(F)(F)F)CC1	9180	0.9	–
CC[C@]1(CNS(=O)(=O)C(F)(F)F)CCN(S(=O)(=O)c2cc3ccccc3n2S(=O)(=O)c2ccccc2F)C[C@H]1C	630	3.1	–

Compound	Ratio Ki [1]	Ki [2] [nM]	AUC [3] [µM·h]
CC(C)(NS(=O)(=O)C(F)(F)F)C1CCN(S(=O)(=O)c2cc3ccccc3n2S(=O)(=O)c2ccccc2F)CC1	171	171	–
C[C@@H]1CN(S(=O)(=O)c2cc3ccccc3n2S(=O)(=O)c2ccccc2F)CC[C@@H]1CNS(=O)(=O)C(F)(F)F	6670	1.5	–
COc1ccc2c(c1)cc(S(=O)(=O)N1CCC(CNS(=O)(=O)C(F)(F)F)CC1)n2S(=O)(=O)c1ccccc1F	5160	0.8	–
O=S(=O)(c1ccccc1F)c1ncccc1S(=O)(=O)N1CCC(CNS(=O)(=O)C(F)(F)F)CC1	126	790	–
CCC1(CNS(=O)(=O)C(F)(F)F)CCN(S(=O)(=O)c2cc3cc(F)ccc3n2S(=O)(=O)c2ccccc2F)CC1	2800	0.4	3.77
CC(NS(=O)(=O)C(F)(F)F)C1CCN(S(=O)(=O)c2cc3ccccc3n2S(=O)(=O)c2ccccc2F)CC1 (configuration not stated)	2080	0.4	–
COC1(CNS(=O)(=O)C(F)(F)F)CCN(S(=O)(=O)c2cc3cccnc3n2S(=O)(=O)c2ccccc2F)CC1	3200	2.5	3.19
O=S(=O)(c1cc2ccccc2n1S(=O)(=O)c1ccccc1F)N1CCC(CNS(=O)(=O)C(F)(F)F)CC1	9250	0.38	–
Cn1c(S(=O)(=O)c2ccccc2F)c(S(=O)(=O)N2CCC(CNS(=O)(=O)C(F)(F)F)CC2)c2ccccc21	364	70	–
O=S(=O)(c1cc2ccccc2n1S(=O)(=O)c1ccccc1F)N1CCC(O)(CNS(=O)(=O)C(F)(F)F)CC1	4380	0.2	–
C[C@@H](NS(=O)(=O)C(F)(F)F)c1ccc(S(=O)(=O)c2cc3ccccc3n2S(=O)(=O)c2ccccc2F)cc1	1340	7.5	–
CCCC1(CNS(=O)(=O)C(F)(F)F)CCN(S(=O)(=O)c2cc3ccccc3n2S(=O)(=O)c2ccccc2F)CC1	2520	1.8	–
CC(C)C1(CNS(=O)(=O)C(F)(F)F)CCCN(S(=O)(=O)c2cc3ccccc3n2S(=O)(=O)c2ccccc2F)C1 (configuration not stated)	24	78	–
C[C@@H](NS(=O)(=O)C(F)(F)F)c1ccc(S(=O)(=O)c2ccoc2S(=O)(=O)c2ccccc2F)cc1	2690	4.4	–
CC1(C)CN(S(=O)(=O)c2cc3ccccc3n2S(=O)(=O)c2ccccc2F)CCC1CNS(=O)(=O)C(F)(F)F (configuration not stated)	245	4.2	–
O=S(=O)(c1ccccc1F)c1occc1S(=O)(=O)N1CCC(CNS(=O)(=O)C(F)(F)F)CC1	4520	1.4	–
